How the values were obtained:
[1] = molecular target: Cyclin-dependent kinase 5 (Homo sapiens, UniProt Q00535); test: Inhibition of CDK5 (unknown origin)
[2] = molecular target: Cyclin-dependent kinase 7 (Homo sapiens, UniProt P50613); test: Inhibition of CDK7 (unknown origin)
Cyclin-dependent kinase 7, sequence (P50613 whole entry): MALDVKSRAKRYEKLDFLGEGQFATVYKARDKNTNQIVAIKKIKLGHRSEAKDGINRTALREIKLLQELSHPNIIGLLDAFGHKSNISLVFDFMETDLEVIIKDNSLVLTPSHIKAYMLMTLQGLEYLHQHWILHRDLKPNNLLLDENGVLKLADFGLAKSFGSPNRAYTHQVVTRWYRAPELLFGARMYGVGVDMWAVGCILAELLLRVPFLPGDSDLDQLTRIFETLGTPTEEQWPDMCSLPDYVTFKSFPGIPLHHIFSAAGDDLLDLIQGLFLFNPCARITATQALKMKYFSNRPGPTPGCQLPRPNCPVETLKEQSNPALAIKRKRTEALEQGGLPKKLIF

Cyclin-dependent kinase 5, sequence (Q00535 whole entry): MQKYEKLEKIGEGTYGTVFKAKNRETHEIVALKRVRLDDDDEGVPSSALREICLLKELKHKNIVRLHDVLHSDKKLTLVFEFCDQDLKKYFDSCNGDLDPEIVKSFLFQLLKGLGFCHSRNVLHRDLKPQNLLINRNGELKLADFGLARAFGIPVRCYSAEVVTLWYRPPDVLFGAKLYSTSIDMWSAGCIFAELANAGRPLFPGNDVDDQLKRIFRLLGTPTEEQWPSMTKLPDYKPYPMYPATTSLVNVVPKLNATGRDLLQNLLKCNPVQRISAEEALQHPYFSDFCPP

## CC[C@H](Nc1nc(NCc2cnc(C)cc2C)c2ncn(C(C)C)c2n1)[C@@H](C)O [US8592581, 1]
[1]
  IC50: 21 nM
[2]
  IC50: 193 nM
